Tests used:
[1] = system: Adrenocorticotrophic hormone (ACTH); experiment: Systemic Effects - ACTH Suppression in Adrenalectomised Rats; type: in vivo; settings: adrenalectomised male CD rats, plasma
Description: (II) Systemic Effects--ACTH Suppression in Adrenalectomised Rats
Male CD rats (90-120 g) were adrenalectomised under Isoflurane anaesthesia and drinking water was supplemented with 0.9% saline. Four days later the animals receive a single intravenous dose of compound dissolved in DMA/PEG-200/distilled water (1:6:3) (0.2 ml) at 10 am. At 2 h and 4 h afterwards animals are sacrificed by administration of Euthetal and blood samples are taken by intra-cardiac puncture and collected into heparinised tubes. The samples are centrifuged (20 minutes at 1000 RPM at 4 deg C), the plasma is collected and assayed by Radioimmunoassay (RIA) for Adrenocorticotrophic hormone (ACTH) using a DPC double antibody RIA kit. Intact and vehicle control groups for each time point assessed were included in each experiment in order to account for diurnal variation in ACTH and effects of vehicle. Results are calculated with respect to the RIA standard curve and expressed as ACTH pg/ml plasma, allowing percentage reduction in ACTH to be calculated.

lung eosinophilia = experiment: Inhibition of lung eosinophilia in Brown Norway rats; type: in vivo; settings: OVA-sensitised male Brown Norway rats, lung lavage on day 16
Description: (i) Anti-inflammatory Activity--Inhibition of lung eosinophilia in Brown Norway rats
Male Brown norway rats (150-180 g) are sensitised with 1 ml intra-peritoneally (ip) containing 10 mg Al (OH)3 +1 mg Ovalbumin (OVA) on day 1. On day 7 each rat received 1 ml ip containing 10 mg Al(OH)3 +100 ug OVA. On day 14, each rat received an intratracheal (IT) dose of compound or vehicle (0.2 ml), under isoflurane anaesthesia. Compounds are suspended in 0.9% saline/0.2% Tween 80. 4 h after compound administration, each animal receives 400 ug OVA in saline IT (0.2 ml). On day 16, animals are killed and the lungs lavaged with 5 mls of lavage fluid (10 mM EDTA, phosphate buffered saline (pH 7.4), 5 units heparin/ml, 0.1% BSA). The samples are centrifuged at 1000 RPM for 10 minutes. The supernatant is removed and the cells resuspended in 0.5 ml lavage fluid. Total cells are counted with a Sysmex counter. Cytospin slides are prepared using 75 ul of the cell suspension and the cells are stained with May-Grunwald stain. Differential cell counts are performed using a microscope. Numbers of eosinophils are calculated per ul of lavage fluid per rat allowing percentage reduction in eosinophilia to be calculated.

[2] = molecular target: T1, Human Glucocorticoid Receptor (Homo sapiens, UniProt P04150); experiment: functional in vitro glucocorticoid assay, MMTV-sPAP reporter gene in transfected Hela cells; type: cell-based
T1 construct: endogenous in cells; host or cells: HeLa cells stably transfected with the MMTV-LTR/sPAP reporter
T1 sequence (P04150 1-777): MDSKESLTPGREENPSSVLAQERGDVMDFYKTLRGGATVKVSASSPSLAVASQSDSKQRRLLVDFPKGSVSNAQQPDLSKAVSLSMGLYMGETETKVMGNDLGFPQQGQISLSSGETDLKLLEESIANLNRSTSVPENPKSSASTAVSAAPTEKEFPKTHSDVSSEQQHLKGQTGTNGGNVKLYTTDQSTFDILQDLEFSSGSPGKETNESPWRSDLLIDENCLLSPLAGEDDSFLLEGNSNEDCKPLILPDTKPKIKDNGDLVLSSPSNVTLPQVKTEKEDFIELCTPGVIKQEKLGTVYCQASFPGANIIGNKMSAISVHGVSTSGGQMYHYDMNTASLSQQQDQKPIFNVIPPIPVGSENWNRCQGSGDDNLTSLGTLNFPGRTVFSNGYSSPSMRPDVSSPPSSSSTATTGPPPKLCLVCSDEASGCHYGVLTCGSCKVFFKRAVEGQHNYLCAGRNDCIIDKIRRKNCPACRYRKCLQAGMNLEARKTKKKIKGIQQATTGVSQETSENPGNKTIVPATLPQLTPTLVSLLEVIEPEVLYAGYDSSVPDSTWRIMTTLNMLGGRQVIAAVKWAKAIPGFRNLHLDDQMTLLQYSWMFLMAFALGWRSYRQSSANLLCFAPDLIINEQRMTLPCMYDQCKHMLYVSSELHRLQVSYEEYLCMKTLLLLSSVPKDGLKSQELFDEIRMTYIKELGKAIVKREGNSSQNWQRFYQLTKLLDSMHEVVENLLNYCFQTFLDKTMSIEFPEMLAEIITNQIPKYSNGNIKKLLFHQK
Description: The functional assay used was a modification of the method described by T. S Berger et al, of J. of Steroid Biochem. Molec.
Thus, Hela cells were stably transfected with a detectable reporter gene (secreted placental alkaline phosphatase, sPAP) under the control of a glucocorticoid response promoter (the LTR of the mouse mammary tumour virus, MMTV). Various concentrations of standard (dexamethasone) or compounds of the invention were incubated with transfected Hela cells for 72 hours. At the end of the incubation, substrate ([…]) for sPAP was added and the product measured by a spectrophotometric method. Increased absorbance reflected increased sPAP transcription and concentration-response lines were constructed such that EC50 -values could be estimated.

[3] = dose 6.25 μg single intravenous

Row | SMILES | EC50 [2] | further results
1 | CC1(C)O[C@@H]2C[C@H]3[C@@H]4C[C@H](F)C5=CC(=O)C=C[C@]5(C)[C@@]4(F)[C@@H](O)C[C@]3(C)[C@]2(C(=O)CS[C@H]2CCOC2=O)O1 (single isomer, unassigned) [Example 3 Isomer A, 6α,9α-Difluoro-11β-hydroxy-16α,17α-isopropylidenedioxy-21-(2-oxo-tetrahydro-furan-3S-yl-sulfanyl)-pregna-1,4-diene-3,20-dione] | – | % Reduction in ACTH at 2 h ([1]; dose 500 μg single intravenous): 16%; % Reduction in ACTH at 4 h ([1]; dose 500 μg single intravenous): 15%; % Reduction in Eosinophilia (lung eosinophilia; dose 250 μg intratracheal): 74%; % Reduction in Eosinophilia (lung eosinophilia; dose 750 μg intratracheal): 97%
2 | CCCC1O[C@@H]2C[C@H]3[C@@H]4CCC5=CC(=O)C=C[C@]5(C)[C@H]4[C@@H](O)C[C@]3(C)[C@]2(C(=O)CSC2CCOC2=O)O1 (single isomer, unassigned) [Example 9 isomer A, 16α,17α-Butylidenedioxy-11β-hydroxy-21-(2-oxo-tetrahydrofuran-3-yl-sulfanyl)-pregna-1,4-diene-3,20-dione] | < 600 nM | –
3 | CCCC1O[C@@H]2C[C@H]3[C@@H]4CCC5=CC(=O)C=C[C@]5(C)[C@H]4[C@@H](O)C[C@]3(C)[C@]2(C(=O)CO)O1 (stereo partly drawn) [Budesonide, reference compound] | – | % Reduction in ACTH at 2 h [1, 3]: 61%; % Reduction in ACTH at 4 h [1, 3]: 32%; % Reduction in Eosinophilia (lung eosinophilia; dose 250 μg intratracheal): 82%
4 | CCC(=O)O[C@]1(C(=O)CSC2CCOC2=O)[C@H](C)C[C@H]2[C@@H]3C[C@H](F)C4=CC(=O)C=C[C@]4(C)[C@@]3(F)[C@@H](O)C[C@@]21C (stereo partly drawn) [Example 1, 6α,9α-Difluoro-11β-hydroxy-16α-methyl-21-(2-oxo-tetrahydro-furan-3-yl-sulfanyl)-17α-propionyloxy-pregna-1,4-diene-3,20-dione] | < 600 nM | –
5 | CCC(=O)O[C@]1(C(=O)CSC2CCOC2=O)[C@H](C)C[C@H]2[C@@H]3C[C@H](F)C4=CC(=O)CC[C@]4(C)[C@@]3(F)[C@@H](O)C[C@@]21C (stereo partly drawn) [Example 2, 6α,9α-Difluoro-11β-hydroxy-16α-methyl-21-(2-oxo-tetrahydro-furan-3-yl-sulfanyl)-17α-propionyloxy-pregn-4-ene-3,20-dione] | < 600 nM | –
6 | CC1(C)O[C@@H]2C[C@H]3[C@@H]4C[C@H](F)C5=CC(=O)CC[C@]5(C)[C@@]4(F)[C@@H](O)C[C@]3(C)[C@]2(C(=O)CSC2CCOC2=O)O1 (stereo partly drawn) [Example 6, 6α,9α-Difluoro-11β-hydroxy-16α,17α-isopropylidenedioxy-21-(2-oxo-tetrahydro-furan-3-yl-sulfanyl)-pregn-4-ene-3,20-dione] | < 600 nM | –
7 | CCC[C@@H]1O[C@@H]2C[C@H]3[C@@H]4C[C@H](F)C5=CC(=O)C=C[C@]5(C)[C@@]4(F)[C@@H](O)C[C@]3(C)[C@]2(C(=O)CSC2CCOC2=O)O1 (stereo partly drawn) [Example 7, 16α,17α-(R-Butylidenedioxy)-6α,9α-difluoro-11β-hydroxy-21-(2-oxo-tetrahydro-furan-3-yl-sulfanyl)-pregna-1,4-diene-3,20-dione] | < 600 nM | –
8 | CCC[C@@H]1O[C@@H]2C[C@H]3[C@@H]4C[C@H](F)C5=CC(=O)CC[C@]5(C)[C@@]4(F)[C@@H](O)C[C@]3(C)[C@]2(C(=O)CSC2CCOC2=O)O1 (stereo partly drawn) [Example 8, 16α,17α-(R-Butylidenedioxy)-6α,9α-difluoro-11β-hydroxy-21-(2-oxo-tetrahydro-furan-3-yl-sulfanyl)-pregn-4-ene-3,20-dione] | < 600 nM | –
9 | CC1(C)O[C@@H]2C[C@H]3[C@@H]4C[C@H](F)C5=CC(=O)C=C[C@]5(C)[C@@]4(F)[C@@H](O)C[C@]3(C)[C@]2(C(=O)CSC2COC(=O)C2)O1 (stereo partly drawn) [Example 10, 6α,9α-Difluoro-11β-hydroxy-16α,17α-isopropylidenedioxy-21-(2-oxo-tetrahydro-furan4-yl-sulfanyl)-pregna-1,4-diene-3,20-dione] | < 600 nM | –
10 | CCC[C@@H]1O[C@@H]2C[C@H]3[C@@H]4C[C@H](F)C5=CC(=O)CC[C@]5(C)[C@@]4(F)[C@@H](O)C[C@]3(C)[C@]2(C(=O)CSC2COC(=O)C2)O1 (stereo partly drawn) [Example 11, 16α,17α-(R-Butylidenedioxy)-6α,9α-difluoro-11β-hydroxy-21-(2-oxo-tetrahydro-furan-4-yl-sulfanyl)-pregn-4-ene-3,20-dione] | < 600 nM | –

From patent US6013244A, “21-(2-oxo-tetrahydrofuran)-thio pregnane derivatives, a process for their production and pharmaceutical compositions containing them” (Glaxo Wellcome Inc., priority 1995, dated 2000)
